The text below walks through data of article PMC7037447, “Syntheses of L-Rhamnose-Linked Amino Glycerolipids and Their Cytotoxic Activities against Human Cancer Cells” (Molecules, 2020).

Data set [1] relates to JIMT-1. Kind of data set: MTS cell viability assay, 48 h. In kind it is cell-based, human. The following applies: JIMT-1, 48 h. On the procedure: (§1) The cells were incubated with increasing concentrations of the compounds (0–30 µM) for 48 h followed by assessment of cell viability using the MTS assay. […] This compound carries a primary amino group at the sn-3 position of the glycerolipid and L-rhamno sugar at the sn-2 position via an α-rhamnosidic linkage.
(§2) The cell lines were cultured from frozen stocks originally obtained from ATCC (Manassas, VA, USA). MDA-MB-231, JIMT-1, DU145, MDA-MB-468, Hs578t and MDA-MB-453 were grown in DMEM medium supplemented with 10% FBS. BT-474 cells were grown in DMEM/F12 medium supplemented with 10% FBS. MiaPaCa2 was cultured in DMEM supplemented with 10% FBS and 2.5% horse serum. All the media contained penicillin/streptomycin. U-251 and U-87 in Eagle MEM supplemented by 10% FBS, 1% Non-essential amino acids, 1 mM sodium pyruvate and 2 mM glutamine. BT-549 was cultured in RPMI 1640 medium supplemented with 10% FBS.
(§3) The effects of the GAELs on the viability of the epithelial cancer cell lines were determined as previously described. Briefly, equal numbers of the cells were dispersed into 96-well plates. After 24 h, the cells were incubated with the compounds (0–30 µM) for 48 h. MTS reagent [3-(4,5-dimethylthiazol-2-yl)-5-(3-carboxymethoxyphenyl)-2-(4-sulfophenyl)-2H-tetrazolium, inner salt; Promega, Madison, WI, USA] (20% v/v) was subsequently added and the plates were incubated for 1–4 h in a CO2 incubator followed by measurement of the medium at OD490 with a plate reader (Molecular Devices). Wells with media but no cells were treated in similar fashion and the values utilized as blank.
A general note: Tetrazolium dyes change colour on reduction, which living cells bring about.

Data set [2] has as its system human epithelial cancer cell lines: breast (MDA-MB-231, JIMT-1), pancreas (MiaPaCa2) and prostate (DU-145, PC-3). In words: MTS cell viability assay, 48 h, across the panel of cell lines. In kind it is cell-based. The following applies: for CC50: read-out: CC50 values across the cell lines; for Cytotoxicity against the cancer cells: highest dose tested 30 µM, data not shown. On the procedure: as §1, §2, §3

Data set [3] concerns MDA-MB-231. Kind of data set: MTS cell viability assay, 48 h. As to conditions: MDA-MB-231, 48 h. In kind it is cell-based, human. On the procedure: […] […] This compound carries a primary amino group at the sn-3 position of the glycerolipid and L-rhamno sugar at the sn-2 position via an α-rhamnosidic linkage.
as §2
The effects of the GAELs on the viability of the epithelial cancer cell lines were determined as previously described. Briefly, equal numbers of the cells were dispersed into 96-well plates. […] MTS reagent [3-(4,5-dimethylthiazol-2-yl)-5-(3-carboxymethoxyphenyl)-2-(4-sulfophenyl)-2H-tetrazolium, inner salt; Promega, Madison, WI, USA] (20% v/v) was subsequently added and the plates were incubated for 1–4 h in a CO2 incubator followed by measurement of the medium at OD490 with a plate reader (Molecular Devices).

The subject of data set [4] is PC-3. Kind of data set: MTS cell viability assay, 48 h. In kind it is cell-based, human. As to conditions: PC-3, 48 h. On the procedure: as §1, §3
The subject of data set [5] is DU-145. In words: MTS cell viability assay, 48 h. The data set is classed as cell-based, human. The following applies: DU-145, 48 h. As to the method: as §1, §2
(§4) The effects of the GAELs on the viability of the epithelial cancer cell lines were determined as previously described. Briefly, equal numbers of the cells were dispersed into 96-well plates. After 24 h, the cells were incubated with the compounds (0–30 µM) for 48 h. MTS reagent [3-(4,5-dimethylthiazol-2-yl)-5-(3-carboxymethoxyphenyl)-2-(4-sulfophenyl)-2H-tetrazolium, inner salt; Promega, Madison, WI, USA] (20% v/v) was subsequently added and the plates were incubated for 1–4 h in a CO2 incubator followed by measurement of the medium at OD490 with a plate reader (Molecular Devices).

Data set [6] concerns MiaPaCa2. Kind of data set: MTS cell viability assay, 48 h. In kind it is cell-based, human. On the procedure: as §1, §2, §4
Data set [7] relates to MiaPaCa2. Also on record: method as in PMID 28177244. As to conditions: cited from earlier work.
Data set [8] deals with JIMT-1. Also on record: method as in PMID 28177244. The following applies: cited from earlier work.
Data set [9] has as its system MDA-MB-231. Also on record: method as in PMID 28177244. As to conditions: cited from earlier work.
Data set [10] concerns PC-3. Also on record: method as in PMID 28177244. The following applies: cited from earlier work.
Data set [11] has as its system human epithelial cancer cell lines: breast (MDA-MB-231, JIMT-1), pancreas (MiaPaCa2) and prostate (DU-145, PC-3). Set-up: method as in PMID 28177244. The following applies: range over all cell lines; read-out: CC50 values across the cell lines; cited from earlier work.
The subject of data set [12] is DU-145. Set-up: method as in PMID 28177244. As to conditions: cited from earlier work.
Data set [13] relates to JIMT-1. In words: Cell membrane integrity, ethidium homodimer-1 (EthD-1) staining. As to conditions: JIMT-1, 0.01%, 10 min. In kind it is cell-based. As to the method: (§5) After determining that the mechanism of cell death of compound 3 is independent of caspases-mediated apoptosis, we evaluated if cell death was due to membrane disruption or lysis using the cell impermeant ethidium homodimer-1 (EthD-1) dye that emits red fluorescence upon binding to DNA [13, 14]. DU-145 and JIMT-1 were treated with compound 3 at 10 and 15 µM, respectively. After 4–6 h, the cells were treated with EthD-1 dye and monitored under fluorescence microscopy.
(§6) Equal numbers of JIMT-1 and DU145 cells were dispersed into 96-well plates. After 24 h the cells were incubated with varying concentration of compounds 3 or 4 (4–6 µM) for 5–6 h. Subsequently, 2 µM of the cell membrane impermeant dye, ethidium homodimer-1 (EthD-1 (Molecular Probes, Eugene, OR, USA) that emits red fluorescence upon binding to DNA was added and the cells analysed by fluorescence microscopy. EthD-1 staining was compared to negative controls with no treatment and positive control treated with 0.01% Triton X-100 for 10 min.
(§7) Figure 5 Evaluation of effect of compound 3 on cell membrane of DU-145 and JIMT-1 cell lines using cell impermeant ethidium homodimer-1 (EthD-1) dye that emits red fluorescence upon binding to DNA.

Data set [14] has as its system DU-145. The data set is described as above. In kind it is cell-based. As to conditions: DU-145, 0.01%, 10 min. On the procedure:
as §5, §6, §7

The mark [15] stands for this setting: Homo sapiens, MTS, read-out: CC50.
The mark [16] stands for this setting: Homo sapiens, 48 h, range or bound over all cell lines, 48 h, MTS.
The mark [17] stands for this setting: Homo sapiens, MIA PaCa-2, MiaPaCa2, 48 h, MTS, read-out: CC50.

Read-outs that look alike come from different tables or passages of the source.

With “1-Hexadecyl-2R-methoxyl-3-O-α-L-rhamnopyranosyl-sn-glycerol [Compound 2]”, the CC50 in data set [1] (MTS, read-out: CC50) is 28 µM; in data set [2] (range or bound over all cell lines, 48 h, MTS), no less than 21.5 µM; in data set [3] (MTS, concentration decreasing cell viability by 50% relative to untreated control, read-out: CC50), 26 µM; in [4] (MTS, read-out: CC50) it was 25 µM; in data set [5] (MTS, read-out: CC50), 25 µM; in data set [6] (MiaPaCa2, 48 h, MTS, read-out: CC50) it was greater than 30 µM.

Regarding `O=C(O)CCCc1ccc(N(CCCl)CCCl)cc1` [Chlorambucil, reference compound], the CC50 in data set [1] (Homo sapiens) is greater than 150 µM; in data set [2] (Homo sapiens, 48 h) it was greater than 150 µM; in [3] (Homo sapiens), greater than 150 µM; in data set [4] (Homo sapiens), greater than 150 µM; in data set [5] (Homo sapiens), greater than 150 µM; in data set [6] (Homo sapiens, MIA PaCa-2, 48 h), greater than 150 µM.

Regarding `CCCCCCCCCCCCCCCCOCC(CO[C@@H]1O[C@@H](CO)[C@H](O)[C@@H](O)[C@@H]1N)OC` (stereo partly drawn) [Compound 1], the CC50 is 7.5 µM in [7]; 6.5 µM in data set [8]; 11 µM in [9]; 12.5 µM in data set [10]; 6.5 to 12 µM in [11]; 12.5 µM in data set [12].

Take `CCCCCCCCCCCCCCCCOCC(CNC(=O)CCc1ccc(O)cc1)O[C@@H]1O[C@@H](C)[C@H](O)[C@@H](O)[C@H]1O` (stereo partly drawn) [Compound 4]: the CC50 was 25 µM in data set [1] (setting [15]); no less than 21.5 µM in [2] (setting [16]); 23 µM in [3] (Homo sapiens, MTS, concentration decreasing cell viability by 50% relative to untreated control, read-out: CC50); 21.5 µM in data set [4] (setting [15]); 30 µM in data set [5] (setting [15]); greater than 30 µM in data set [6] (setting [17]).

Regarding `CCCCCCCCCCCCCCCCOCC(CN)OC1OC(CO)C(O)C(O)C1O` [Compound 5, 3-Amino-1-hexadecyloxyl-2R-O-β-L-glucopyranosyl-sn-glycerol], the CC50 in data set [1] (setting [15]), in data set [2] (setting [16]), in data set [4] (setting [15]), in [5] (setting [15]) and in [6] (setting [17]) was greater than 30 µM in each case. For the same compound, the Loss of viability in data set [2] (depending on the cell line, up to 30 µM, 48 h) was 0–35%.

Take `CCCCCCCCCCCCCCCCOCC(CN)OC1OC(CN)C(O)C(O)C1O` [Compound 6, 3-Amino-1-hexadecyloxyl-2R-(6′-amino-6′deoxy-O-α-L-mannopyranosyl)-sn-glycerol]: the CC50 is 12.5 µM in [1] (setting [15]); 12.5 to 25 µM in [2] (setting [16]); 25 µM in [4] (setting [15]); 17.5 µM in data set [5] (setting [15]); 19 µM in [6] (setting [17]). In data set [2] (CC50 compared with 3), the “Times less active than glycolipid 3” value is on record as 2- to 4.

Turning to `CCCCCCCCCCCCCCCCOCC(CO[C@H]1O[C@H](CO)[C@@H](O)[C@H](O)[C@H]1N)OC` (stereo partly drawn) [Compound 7], the CC50 in data set [7] was 9 µM; in data set [8], 9 µM; in data set [10], 13.5 µM; in [12], 9 µM.

On to `OC[C@@H]1OC(O)[C@@H](O)[C@H](O)[C@H]1O` (stereo partly drawn) [L-glucose], for which the “Cytotoxicity against the cancer cells” value in [2] is “not cytotoxic”.

`OC[C@@H]1OC(O)[C@H](O)[C@H](O)[C@H]1O` (stereo partly drawn) [L-mannose]: the “Cytotoxicity against the cancer cells” value in data set [2] is “not cytotoxic”.

As for `C[C@H](O)[C@H](O)[C@@H](O)[C@@H](O)C=O` [rhamnose, L-Rhamnose], the “Cytotoxicity against the cancer cells” value in data set [2] is on record as “not cytotoxic”.

For Triton X-100 [reference compound], the “EthD-1 staining, positive control” value in data set [13] and in [14] was “stained bright red” each time.
